Data set [1] in a line: Inhibition of recombinant mouse GALK1 using ATP as substrate incubated for 1 hr and measured by Kinase-Glo assay. On the technique in general: Kinase-Glo measures the ATP left after a reaction by luminescence.
The target in the next data set is Galactokinase (Homo sapiens, UniProt P51570). Put plainly: Inhibition of recombinant human GALK1 using ATP as substrate incubated for 1 hr and measured by Kinase-Glo assay.
The nature of data set [2]: Stability of compound in rat microsomes assessed as half-life. It is filed as ADME, Microsome.
Data set [3] is described as follows: Kinetic aqueous solubility of the compound. It is filed as physicochemical. The settings on record: buffer; read-out: Kinetic_solubility.
The next data set concerns Fibroblast. Put plainly: Inhibition of human GALK1 K252A/E253A double mutant in human skin fibroblasts at 10 uM assessed as reduction in Gal-1P accumulation. It is filed as cell-based.
A short description of data set [4]: Inhibition of human GALK1 K252A/E253A double mutant. To be noted: read-out: IC50.
Data set [5] can be described thus: Permeability of compound by PAMPA assay. It is filed as ADME. The settings on record: read-out: permeability.
For a further data set, the species on record is Homo sapiens. As to the kind of experiment: Inhibition of human GALK1 K252A/E253A double mutant relative to control. Set-up: concentration or dose not given beside the values. To be noted: concentration not given here.
A short description of data set [6]: Binding affinity towards human GALK1 K252A/E253A double mutant measured by surface plasmon resonance (SPR) assay. In general terms: In SPR one partner is held on a chip, and binding of the other changes the refractive index at the surface.
Data set [7] in a line: Stability of compound in human liver microsomes assessed as half-life. It is filed as ADME, Microsome. On the technique in general: Liver microsomes are a subcellular fraction often used to study metabolism.
A short description of data set [8]: Stability of compound in mouse liver microsomes assessed as half-life. It is filed as ADME, Microsome.
Data set [9] is described as follows: Stability of compound in rat liver microsomes assessed as half-life. It is filed as ADME, Microsome.

Molecules are shown by their SMILES. In brackets after ≈: the same amount, converted by molar mass.

A word on the IC50: it is the concentration that inhibits the measured activity by half. The half-life is the time needed for the level to fall by half in the phase considered. As a reminder, the inhibition is how much of the control response was suppressed. A word on the Kd: it is the constant that tells how readily two partners part at equilibrium.

Sequence of Galactokinase (P51570 whole entry): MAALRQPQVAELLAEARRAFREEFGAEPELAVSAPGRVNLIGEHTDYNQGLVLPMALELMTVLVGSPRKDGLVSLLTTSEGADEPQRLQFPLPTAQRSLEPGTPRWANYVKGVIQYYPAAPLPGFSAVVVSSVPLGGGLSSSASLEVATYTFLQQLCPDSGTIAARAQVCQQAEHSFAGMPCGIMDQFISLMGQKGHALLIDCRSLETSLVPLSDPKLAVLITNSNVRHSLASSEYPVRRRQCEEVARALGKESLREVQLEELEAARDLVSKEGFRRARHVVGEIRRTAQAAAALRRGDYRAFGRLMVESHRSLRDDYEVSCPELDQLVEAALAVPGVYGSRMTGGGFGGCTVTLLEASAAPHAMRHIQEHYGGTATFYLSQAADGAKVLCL

Consider `CCOC(=O)C1=C(C)NC(Nc2nc3ccccc3o2)=NC1c1ccccc1Cl` (centres undefined), for which the IC50 in [1] (read-out: IC50) was 13700 nM; at Galactokinase it was “Not Active”. In addition, the half-life in data set [2] was found to be 19.3 min. Also, in [3], the solubility kinetic is < 1 µg/mL.

For the compound `CCn1cc(CNC(=O)C2=C(C)NC(Nc3nc4ccc(F)c(N)c4o3)=NC2c2ccc(C)cc2Cl)cn1` (racemic), the values for the IC50 in data set [1] (read-out: IC50) and in data set [4] were 610 nM and 22 nM, respectively. The half-life in data set [2] was determined as 14.1 min. Moreover, the solubility kinetic in data set [3] is < 1 µg/mL. Moreover, the inhibition with Fibroblast was found to be 70%.

In the case of `CCn1cc(C(C)NC(=O)C2=C(C)NC(Nc3nc4cccc(N)c4o3)=NC2c2ccc(C)cc2Cl)cn1` (centres undefined), the IC50 was 1090 nM in [1] (read-out: IC50) and 50 nM on Galactokinase (read-out: IC50). The half-life in [2] is 17.9 min. Moreover, in data set [5], the Papp amounted to 333 ×10⁻⁶ cm/s. The solubility kinetic in data set [3] is < 1 µg/mL.

Turning to `CC1=C(C(=O)Nc2nncs2)C2(Cc3ccccc32)N=C(Nc2nc3ccccc3o2)N1` (centres undefined), the IC50 entry (in [1]; at Galactokinase) was “Not Active” each time. Further, the half-life in data set [2] is > 30 min. The solubility kinetic in data set [3] was 50.9 µg/mL (≈ 115 µM).

On to `CC1=C(C(=O)NCc2ccc(Cl)cc2)C(c2ccccc2Cl)N=C(Nc2nc3ccccc3o2)N1` (centres undefined), for which the IC50 result (in data set [1]; on Galactokinase) was “Not Active” throughout. Also, the half-life in [2] came to 11.9 min. Further, in [3], the solubility kinetic was < 1 µg/mL.

Turning to `COC(=O)c1ccnc(NC(=O)C2=C(C)NC(Nc3nc4ccccc4o3)=N[C@@H]2c2ccccc2Cl)c1`, the IC50 entry (in data set [1]; at Galactokinase) was “Not Active” each time. Further, the half-life in [2] came to 25.6 min. Also, the solubility kinetic in data set [3] was < 1 µg/mL.

For the compound `CC1=C(C(=O)Nc2ccc(Cl)cc2)C(c2ccccc2Cl)N=C(Nc2nc3ccccc3o2)N1` (centres undefined), the IC50 was 7690 nM in data set [1] (read-out: IC50) and “Not Active” at Galactokinase. Moreover, the half-life in data set [2] is > 30 min. In addition, the Papp in data set [5] was 2 ×10⁻⁶ cm/s. For the same compound, the solubility kinetic in data set [3] was < 1 µg/mL.

As for `COC(=O)c1ccccc1NC(=O)C1=C(C)NC(Nc2nc3ccccc3o2)=NC1c1ccccc1Cl` (centres undefined), the IC50 result (in data set [1]; at Galactokinase) was “Not Active” each time.

Regarding `CC1=C(C(=O)Nc2cccc(Cl)c2)C(c2ccccc2Cl)N=C(Nc2nc3ccccc3o2)N1` (centres undefined), the IC50 result (in data set [1]; on Galactokinase) was “Not Active” throughout. Besides, the half-life in data set [2] is > 30 min. For the same compound, the Papp in data set [5] was < 9.2 ×10⁻⁶ cm/s. In addition, in data set [3], the solubility kinetic is < 1 µg/mL.

`CC1=C(C(=O)Nc2cc(C(=O)O)ccn2)C(c2ccccc2Cl)N=C(Nc2nc3cccc(OC(F)(F)F)c3o2)N1` (centres undefined) registered an inhibition in the data set filed under Homo sapiens of 88%. Moreover, the IC50 entry in data set [1] was “Not Active”; at Galactokinase it was “Not Active”; in data set [4], > 15000 nM. The half-life in data set [2] was > 30 min. Moreover, the Papp in [5] was < 10 ×10⁻⁶ cm/s. Further, the solubility kinetic in data set [3] came out at 47.8 µg/mL (≈ 81.4 µM).

Turning to `CC1=C(C(=O)NCc2ccccc2Cl)C(c2ccccc2Cl)N=C(Nc2nc3ccccc3o2)N1` (centres undefined), the IC50 result (in data set [1]; on Galactokinase) was “Not Active” in each case. Moreover, the half-life in data set [2] was found to be 4.22 min. The solubility kinetic in [3] is < 1 µg/mL.

Take `CC1=C(C(=O)Nc2cccc(Br)c2)C(c2ccccc2Cl)N=C(Nc2nc3ccccc3o2)N1` (centres undefined): the IC50 entry (in data set [1]; at Galactokinase) was “Not Active” in each case. The half-life in data set [2] was > 30 min. The Papp in data set [5] was < 1.8 ×10⁻⁶ cm/s. Besides, the solubility kinetic in data set [3] was < 1 µg/mL.

Turning to `COc1ccc2oc(NC3=NC(c4ccccc4Cl)C(C(=O)Nc4nnc(-c5cccnc5)s4)=C(C)N3)nc2c1` (centres undefined), the IC50 result (in data set [1]; at Galactokinase) was “Not Active” throughout. Besides, the half-life in [2] was > 30 min. Besides, the Papp in data set [5] is < 19.1 ×10⁻⁶ cm/s. Also, the solubility kinetic in [3] is < 1 µg/mL.

The compound `CC1=C(C(=O)Nc2cc(C(=O)O)ccn2)C(c2ccccc2Cl)N=C(Nc2nc3ccc(F)cc3o2)N1` (racemic) showed an inhibition in the data set listed under Homo sapiens of 100%. For the same compound, the Kd in data set [6] is 23 nM. Also, the IC50 was found to be 4320 nM in [1] (read-out: IC50) and 260 nM in [4]. For the same compound, in [2], the half-life is > 30 min. Further, the solubility kinetic in [3] was 46.1 µg/mL (≈ 88.5 µM).

With `CC1=C(C(=O)Nc2cc(C(=O)O)ccn2)[C@H](c2ccccc2Cl)N=C(Nc2nc3cccc(N)c3o2)N1`, the values for the IC50 (in data set [1] (read-out: IC50); at Galactokinase (read-out: IC50)) were 1720 nM and 86 nM, respectively.

Take `COC(=O)c1ccnc(NC(=O)C2=C(C)NC(Nc3nc4cccc(N)c4o3)=NC2c2ccc(C)cc2Cl)c1` (centres undefined): the IC50 in data set [1] (read-out: IC50) is 7080 nM; at Galactokinase (read-out: IC50), 2240 nM. Besides, in [2], the half-life came to 25.3 min. Further, in [3], the solubility kinetic is < 1 µg/mL.

In the case of `CCOC(=O)C1=C(C(C)C)NC(Nc2nc3ccccc3o2)=NC1c1ccccc1Cl` (centres undefined), the concentration for half-maximal inhibition (IC50) entry (in data set [1]; at Galactokinase) was “Not Active” in each case. In [2], the half-life worked out at 5.75 min. Further, the solubility kinetic in data set [3] was < 1 µg/mL.

`CC1=C(C(=O)N(C)c2ccccc2)C(c2ccccc2Cl)N=C(Nc2nc3ccccc3o2)N1` (centres undefined): the IC50 result (in [1]; on Galactokinase) was “Not Active” in each case. For the same compound, the half-life in data set [2] is 1.18 min. Further, in [3], the solubility kinetic is < 1 µg/mL.

As to `CC1=C(C(=O)NCc2cnn(C)c2)C(c2ccc(C)cc2Cl)N=C(Nc2nc3ccc(F)c(N)c3o2)N1` (centres undefined), the values for the IC50 in data set [1] (read-out: IC50) and in data set [4] were 690 nM and 14 nM, respectively. The half-life in [2] was determined as 17.1 min; in data set [8], 13 min; in [9], 16 min. Moreover, in data set [7], the t1/2 was 47 min. Further, the solubility kinetic in data set [3] turned out to be 1.27 µg/mL (≈ 2.43 µM). For the same compound, in the data set with Fibroblast, the inhibition was found to be 100%.

Regarding `CC1=C(C(=O)Nc2cc(C(=O)O)ccn2)C(c2ccccc2Cl)N=C(Nc2nc3cccc(N)c3o2)N1` (racemic), the inhibition in the data set filed under Homo sapiens came to 100%. In data set [6], this compound gave a Kd of 12 nM. Besides, the results for the IC50 in data set [1] (read-out: IC50) and in data set [4] were 3430 nM and 77 nM, respectively. Further, the half-life in data set [2] is > 30 min. Also, the solubility kinetic in data set [3] was > 76 µg/mL.

`CC1=C(C(=O)NCc2cn(C)cn2)[C@@H](c2ccccc2Cl)N=C(Nc2nc3ccccc3o2)N1`: the IC50 result (in data set [1]; on Galactokinase) was “Not Active” throughout. Further, in data set [2], the half-life is 8.73 min. For the same compound, the solubility kinetic in data set [3] turned out to be 40.5 µg/mL (≈ 85.1 µM).

Take `COC(=O)C1=C(C(F)(F)F)NC(Nc2nc3ccccc3o2)=NC1c1ccccc1Cl` (centres undefined): the IC50 entry (in data set [1]; on Galactokinase) was “Not Active” each time. Moreover, in data set [2], the half-life came out at 10.5 min. Further, in data set [3], the solubility kinetic was determined as 2.65 µg/mL (≈ 5.88 µM).

On to `COCC1=C(C(=O)Nc2nncs2)C(c2ccccc2Cl)N=C(Nc2nc3ccccc3o2)N1` (centres undefined), for which the IC50 was found to be 19300 nM in [1] (read-out: IC50) and 13700 nM at Galactokinase (read-out: IC50). Besides, the half-life in data set [2] was > 30 min. For the same compound, the solubility kinetic in data set [3] was < 1 µg/mL.

For the compound `CCOC(=O)c1ccc(NC(=O)C2=C(C)NC(Nc3nc4ccccc4o3)=NC2c2ccccc2Cl)cc1` (centres undefined), the IC50 on Galactokinase (read-out: IC50) was found to be 3850 nM. In data set [2], the half-life is > 30 min. For the same compound, the Papp in data set [5] is 8.8 ×10⁻⁶ cm/s. Besides, the solubility kinetic in data set [3] was < 1 µg/mL.

Take `CC1=C(C(=O)Nc2nnc(-c3cccnc3)s2)C(c2ccccc2Cl)N=C(Nc2nc3ccc(C)cc3o2)N1` (centres undefined): the IC50 entry (in data set [1]; at Galactokinase) was “Not Active” throughout. The half-life in data set [2] was > 30 min. In addition, in [5], the Papp was < 2.9 ×10⁻⁶ cm/s. Further, in data set [3], the solubility kinetic was < 1 µg/mL.

These data come from ChEMBL document CHEMBL5050861 (2021).
